Series [1] has as its target Programmed cell death protein 1/Programmed cell death 1 ligand 1 (Homo sapiens) (UniProt Q15116+Q9NZQ7). The following applies: HEK293T, dose 100.0 nM, time 30.0 min.
For series [2], the target named is Programmed cell death protein 1/Programmed cell death 1 ligand 1 (Homo sapiens, UniProt Q9NZQ7). The series is described as follows: Inhibition of human PD-1 to PD-L1 protein-protein interaction by homogeneous-time resolved fluorescence assay. Format: protein-complex assay.
Programmed cell death protein 1/Programmed cell death 1 ligand 1, sequence (Q15116 whole entry): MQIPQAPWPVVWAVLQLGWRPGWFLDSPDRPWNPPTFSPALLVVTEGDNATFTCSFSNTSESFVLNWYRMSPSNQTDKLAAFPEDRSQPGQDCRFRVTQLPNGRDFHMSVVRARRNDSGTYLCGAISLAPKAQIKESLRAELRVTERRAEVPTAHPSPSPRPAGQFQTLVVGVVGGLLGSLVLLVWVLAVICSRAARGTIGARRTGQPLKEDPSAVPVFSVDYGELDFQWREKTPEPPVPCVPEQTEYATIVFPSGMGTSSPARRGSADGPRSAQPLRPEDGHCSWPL
Programmed cell death protein 1/Programmed cell death 1 ligand 1, sequence (Q9NZQ7 whole entry): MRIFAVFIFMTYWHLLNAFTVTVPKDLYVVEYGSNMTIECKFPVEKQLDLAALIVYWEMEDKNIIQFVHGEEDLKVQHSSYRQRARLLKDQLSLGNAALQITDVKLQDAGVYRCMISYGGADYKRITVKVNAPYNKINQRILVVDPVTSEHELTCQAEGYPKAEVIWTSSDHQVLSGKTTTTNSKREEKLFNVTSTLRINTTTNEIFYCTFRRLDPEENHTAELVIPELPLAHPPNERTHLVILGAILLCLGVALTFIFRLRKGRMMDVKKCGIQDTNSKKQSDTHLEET
A short description of series [3]: Cytotoxicity against human PBMCs at 1 to 4 uM by CCK-8 assay. Format: toxicity, cell-based. The following applies: pbmc, dose 1-4 µM. A general note: Formazan colour is commonly taken as a measure of viable cells.
The nature of series [4]: Apparent volume of distribution in Sprague-Dawley rat at 50 mg/kg, IG measured upto 48 hrs by LC-MS/MS analysis. It is filed as ADME, organism-based. Conditions: in vivo, po.
The nature of series [5]: Tmax in Sprague-Dawley rat at 10 mg/kg, iv measured upto 48 hrs by LC-MS/MS analysis. It is filed as ADME, organism-based. Conditions: in vivo.
The nature of series [6]: Half-life in Sprague-Dawley rat at 50 mg/kg, IG measured upto 48 hrs by LC-MS/MS analysis. It is filed as ADME, organism-based. Conditions: in vivo, po.
The nature of series [7]: Half-life in Sprague-Dawley rat at 10 mg/kg, iv measured upto 48 hrs by LC-MS/MS analysis. It is filed as ADME, organism-based. Conditions: in vivo.
Series [8] can be described thus: AUC(0 to infinity) in Sprague-Dawley rat at 50 mg/kg, IG measured upto 48 hrs by LC-MS/MS analysis. It is filed as ADME, organism-based. Conditions: in vivo, po.
A short description of series [9]: Clearance in Sprague-Dawley rat at 50 mg/kg, IG measured upto 48 hrs by LC-MS/MS analysis. Format: ADME, organism-based. Conditions: in vivo, po.
Series [10] in a line: AUC(0 to infinity) in Sprague-Dawley rat at 10 mg/kg, iv measured upto 48 hrs by LC-MS/MS analysis. It is filed as ADME, organism-based. The following applies: in vivo.
Series [11] can be described thus: Apparent volume of distribution in Sprague-Dawley rat at 10 mg/kg, iv measured upto 48 hrs by LC-MS/MS analysis. Conditions: in vivo. Format: ADME, organism-based.
A short description of series [12]: Tmax in Sprague-Dawley rat at 50 mg/kg, IG measured upto 48 hrs by LC-MS/MS analysis. It is filed as ADME, organism-based. Conditions: in vivo, po.
Series [13] in a line: AUC(0 to t) in Sprague-Dawley rat at 10 mg/kg, iv measured upto 48 hrs by LC-MS/MS analysis. The following applies: in vivo. It is filed as ADME, organism-based.
Series [14] is described as follows: AUC(0 to t) in Sprague-Dawley rat at 50 mg/kg, IG measured upto 48 hrs by LC-MS/MS analysis. Format: ADME, organism-based. Conditions: in vivo, po.
The nature of series [15]: Cmax in Sprague-Dawley rat at 50 mg/kg, IG measured upto 48 hrs by LC-MS/MS analysis. It is filed as ADME, organism-based. The following applies: in vivo, po.
A short description of series [16]: Cmax in Sprague-Dawley rat at 10 mg/kg, iv measured upto 48 hrs by LC-MS/MS analysis. The following applies: in vivo. Format: ADME, organism-based.
Series [17] is described as follows: Oral bioavilability in Sprague-Dawley rat at 50 mg/kg measured upto 48 hrs by LC-MS/MS analysis. The following applies: in vivo. Format: ADME, organism-based.
Series [18] can be described thus: Clearance in Sprague-Dawley rat at 10 mg/kg, iv measured upto 48 hrs by LC-MS/MS analysis. It is filed as ADME, organism-based. The following applies: in vivo.
The test system of the next series is MC-38. The series is described as follows: Antitumor activity against mouse MC38 cells expressing hPD-L1 implanted in PD-1/PD-L1 humanized C57BL/6 mouse assessed as tumor growth inhibition at 50 mg/kg, IG. It is filed as functional. The following applies: MC-38, po, read-out: TGI.

As a reminder, the inhibition is the relative decrease from the control value, in per cent. As a reminder, the IC50 is the concentration needed to halve the response being measured. In series [1], `N#Cc1cncc(COc2cc(OCc3cccc(-c4ccc5c(c4)OCCO5)c3CF)ccc2CNCCO)c1` gave an inhibition of 17.3%. The same compound returned an IC50 in [2] of 11.9 nM.

For `N#Cc1cncc(COc2cc(OCc3cccc(-c4ccccc4F)c3CF)ccc2CN[C@H](CO)C(=O)O)c1`, half-maximal inhibition in [2] (IC50) was put at 10 nM. This counts as double-digit nanomolar.

Compound `N#Cc1cncc(COc2cc(OCc3cccc(-c4ccc5c(c4)OCCO5)c3CF)ccc2CN[C@@H](CO)C(=O)O)c1` displayed an inhibition in series [1] of 22%. The IC50 in series [2] amounted to 19.7 nM.

The compound `N#Cc1cncc(COc2cc(OCc3cccc(-c4ccc5c(c4)OCCO5)c3CF)ccc2CN2CCCCC2C(=O)O)c1` (stereo not drawn) came in with a half-maximal inhibitory concentration (IC50) in [2] of 100 nM. This lies in the sub-micromolar range.

Turning to `N#Cc1cncc(COc2cc(OCc3cccc(-c4ccccc4)c3C(F)(F)F)ccc2CNCCO)c1`, in [2], the IC50 stood at 93.8 nM.

With `CC(=O)NCCNCc1ccc(OCc2cccc(-c3ccc4c(c3)OCCO4)c2C(F)F)cc1OCc1cncc(C#N)c1`, the inhibition in [1] turned out to be 18.4%. In series [2], this compound came in with an IC50 of 17.2 nM.

Compound `N#Cc1cccc(COc2cc(OCc3cccc(-c4ccccc4F)c3CF)ccc2CNCCO)c1` came in with an IC50 in series [2] of 100 nM.

In series [2], `N#Cc1cncc(COc2cc(OCc3cccc(-c4ccccc4F)c3CF)ccc2CN[C@@H](CO)C(=O)O)c1` displayed an IC50 of 12.7 nM. This IC50 is about 7.9-fold lower than that of the compound before.

In turn, `N#Cc1cncc(COc2cc(OCc3cccc(-c4ccc5c(c4)OCCO5)c3C(F)F)ccc2CNCC(O)CO)c1` (stereo not drawn) came in with an inhibition in [1] of 17%. Moreover, half-maximal inhibition in series [2] (IC50) was put at 9.5 nM.

Compound `CC(=O)NCCNCc1ccc(OCc2cccc(-c3ccccc3F)c2CF)cc1OCc1cncc(C#N)c1` showed an IC50 in series [2] of 31.4 nM.

For the compound `N#Cc1cncc(COc2cc(OCc3cccc(-c4ccccc4F)c3CF)ccc2CN2CCC(O)C2)c1` (stereo not drawn), the half-inhibitory concentration (IC50) in [2] stood at 55.8 nM. This IC50 lies about 1.8-fold higher than the previous one.

With `N#Cc1cncc(COc2cc(OCc3cccc(-c4ccccc4F)c3C(F)F)ccc2CN2CCC[C@H]2C(=O)O)c1`, the IC50 in series [2] is 120 nM.

In turn, `OCC(O)CNCc1ccc(OCc2cccc(-c3ccc4c(c3)OCCO4)c2C(F)F)cc1OCc1cccnc1` (stereo not drawn) yielded an IC50 in [2] of 67.5 nM. This IC50 lies about 1.8-fold lower than the previous one.

Consider `N#Cc1cncc(COc2cc(OCc3cccc(-c4ccccc4F)c3CF)ccc2CN2CCCCC2C(=O)O)c1` (stereo not drawn), for which, in series [2], the IC50 was 27 nM.

Compound `N#Cc1cncc(COc2cc(OCc3cccc(-c4ccc5c(c4)OCCO5)c3C(F)F)ccc2CN2CCC[C@H]2C(=O)O)c1` displayed an inhibition in series [1] of 21.7%. Also, the concentration for half-maximal inhibition (IC50) in series [2] stood at 19.4 nM.

The compound `N#Cc1cccc(COc2cc(OCc3cccc(-c4ccccc4F)c3CF)ccc2CN2CCC[C@H]2C(=O)O)c1` gave an IC50 in [2] of 10 nM. This lies in the double-digit nanomolar range.

On to `N#Cc1cncc(COc2cc(OCc3cccc(-c4ccccc4F)c3CF)ccc2CN2CC(C(=O)O)C2)c1`, for which the inhibition in [1] came out at 20.5%. This compound yielded an IC50 in [2] of 18.8 nM.

In series [2], `N#Cc1cncc(COc2cc(OCc3cccc(-c4ccccc4F)c3C(F)F)ccc2CNCC(=O)O)c1` gave an IC50 of 154 nM.

`N#Cc1cncc(COc2cc(OCc3cccc(-c4ccccc4F)c3CF)ccc2CNCCO)c1` yielded an IC50 in series [2] of 24.9 nM.

Consider `CN(C)CCNCc1ccc(OCc2cccc(-c3ccc4c(c3)OCCO4)c2C(F)F)cc1OCc1cncc(C#N)c1`, for which, in series [2], the IC50 worked out at 29.5 nM.

In turn, `N#Cc1cncc(COc2cc(OCc3cccc(-c4ccccc4F)c3CF)ccc2CN2CCC[C@H]2C(=O)O)c1` yielded an inhibition in series [1] of 15.4%. In [2], the midpoint of inhibition, the IC50, lay at 6.9 nM.

Turning to `CN(C)CCNCc1ccc(OCc2cccc(-c3ccc4c(c3)OCCO4)c2C(F)F)cc1OCc1cccnc1`, the IC50 in [2] worked out at 100 nM.

As for `N#Cc1cccc(COc2cc(OCc3cccc(-c4ccccc4F)c3C(F)F)ccc2CNCCO)c1`, half-maximal inhibition in series [2] (IC50) required 100 nM.

Take `N#Cc1cncc(COc2cc(OCc3cccc(-c4ccccc4)c3C(F)(F)F)ccc2CN[C@@H](CO)C(=O)O)c1`: the half-maximal inhibitory concentration (IC50) in series [2] amounted to 58.6 nM. This IC50 is about 1.7-fold lower than that of the compound before.

With `N#Cc1cncc(COc2cc(OCc3cccc(-c4ccccc4F)c3CF)ccc2CNCC(=O)O)c1`, the IC50 in series [2] stood at 28.4 nM.

In turn, `CC(=O)NCCNCc1ccc(OCc2cccc(-c3ccccc3F)c2CF)cc1OCc1cccc(C#N)c1` came in with an IC50 in series [2] of 100 nM.

`N#Cc1cncc(COc2cc(OCc3cccc(-c4ccccc4F)c3C(F)F)ccc2CNCCO)c1`: in series [2], inhibition was half-maximal at 41.9 nM (IC50).

`N#Cc1cncc(COc2cc(OCc3cccc(-c4cc(F)ccc4F)c3CF)ccc2CNCCO)c1`: half-maximal inhibition in series [2] (IC50) required 42 nM.

By Tmax is commonly meant the time from dosing to the highest level. As a reminder, the AUC(0-inf) is total exposure, with the tail of the curve extrapolated. The AUC(0-t) is exposure summed from dosing to a finite time, without extrapolation to infinity. Low values mean less exposure, high ones more exposure. As usually defined, the Cmax is the maximum level reached in the sampled fluid or tissue. As a reminder, the bioavailability is the share of a dose that reaches the circulation, judged against a reference dose that is usually intravenous. Higher therefore signals good availability. As for `COc1nc(OCc2cccc(-c3ccccc3)c2C)ccc1CNCCNC(C)=O`, the Activity entry in series [3] is “Non-Toxic”. This compound yielded an inhibition in series [1] of 34.6%. The results for the Vz in series [4] and in [11] were 56.85 L/kg and 12.46 L/kg, respectively. The Tmax in series [5] amounted to 7.2 min; in [12], 2.1 h. In addition, the t1/2 was 3.13 h in series [6] and 1.94 h in [7]. The AUC(0-inf) in [8] was found to be 16900 ng·h/mL; in series [10], 8710 ng·h/mL. Further, the CL in series [9] was found to be 49.2 mL/min/kg; in [18] it was 19.2 mL/min/kg. Besides, the AUC(0-t) at 48 h in series [13] was 8600 ng·h/mL; in series [14], 16800 ng·h/mL. In addition, the Cmax in [15] was determined as 5730 ng/mL; in series [16] it was 3350 ng/mL. Further, the bioavailability in series [17] worked out at 39.1%. Besides, the inhibition in vivo at 50 mg/kg in the series with MC-38 is 44.6%.

For the compound `N#Cc1cncc(COc2cc(OCc3cccc(-c4ccccc4F)c3CF)ccc2CN2CCC(C(=O)O)C2)c1` (stereo not drawn), the 50% inhibitory concentration (IC50) in series [2] is 25.2 nM.

Regarding `N#Cc1cccc(COc2cc(OCc3cccc(-c4ccccc4F)c3C(F)F)ccc2CN[C@@H](CO)C(=O)O)c1`, in series [2], 100 nM corresponded to half-maximal inhibition (IC50).

For the compound `N#Cc1cncc(COc2cc(OCc3cccc(-c4ccc5c(c4)OCCO5)c3CF)ccc2CN2CCC(C(=O)O)C2)c1` (stereo not drawn), in [1], the inhibition is 18.4%. This compound also registered an IC50 in series [2] of 14.9 nM.

`CC(=O)NCCNCc1ccc(OCc2cccc(-c3ccc4c(c3)OCCO4)c2CF)cc1OCc1cncc(C#N)c1` had a half-inhibitory concentration (IC50) in series [2] of 24.9 nM. This counts as double-digit nanomolar.

`CC(=O)NCCNCc1ccc(OCc2cccc(-c3cc(F)ccc3F)c2CF)cc1OCc1cncc(C#N)c1`: the midpoint of inhibition in series [2], the IC50, lay at 100 nM.

For the compound `N#Cc1cncc(COc2cc(OCc3cccc(-c4ccc5c(c4)OCCO5)c3CF)ccc2CNCC(=O)O)c1`, the midpoint of inhibition in [2], the IC50, lay at 100 nM.

In series [2], `CC(=O)NCCNCc1ccc(OCc2cccc(-c3ccccc3F)c2C(F)F)cc1OCc1cncc(C#N)c1` registered an IC50 of 100 nM.

`N#Cc1cncc(COc2cc(OCc3cccc(-c4cc(F)ccc4F)c3CF)ccc2CN[C@@H](CO)C(=O)O)c1` yielded an IC50 in [2] of 20.9 nM. This IC50 is about 4.8-fold lower than that of the compound before.

Take `N#Cc1cncc(COc2cc(OCc3cccc(-c4ccccc4F)c3C(F)F)ccc2CN[C@@H](CO)C(=O)O)c1`: the IC50 in [2] was found to be 16.9 nM.

The record behind these values is ChEMBL document CHEMBL5608200, “Design, synthesis, and evaluation of antitumor activity of 2-arylmethoxy-4-(2-fluoromethyl-biphenyl-3-ylmethoxy) benzylamine derivatives as PD-1/PD-l1 inhibitors” (Eur J Med Chem, 2024).
